Active and inactive are the calls of the source.
Columns and labels:
Fatty acid synthase [1] = target: T1, Fatty acid synthase (Homo sapiens, UniProt P49327); experiment: FAS thioesterase domain inhibitors, dose response, biochemical, endpoint fluorescence intensity, uHTS hits (AID 624327); format: functional;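 further: fluorescence from hydrolysis of an O-methyl fluorescein acyl ester substrate by the enzyme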
Fatty acid synthase [2] = target: T1, Fatty acid synthase; experiment: FAS thioesterase domain inhibitors, dose response, biochemical, kinetic fluorescence intensity (AID 624326); format: functional;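 further: rate of fluorescence rise from hydrolysis of a fluorogenic O-methyl fluorescein ester substrate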
[3] = target: T2, Carboxy-terminal domain RNA polymerase II polypeptide A small phosphatase 1 (Homo sapiens, UniProt Q9GZU7); experiment: inhibitors of CTDSP1, concentration-response testing, biochemical assay, absorbance-based, actives from ultra-high-throughput screening (AID 540297); format: functional
T2 sequence (Q9GZU7 whole entry): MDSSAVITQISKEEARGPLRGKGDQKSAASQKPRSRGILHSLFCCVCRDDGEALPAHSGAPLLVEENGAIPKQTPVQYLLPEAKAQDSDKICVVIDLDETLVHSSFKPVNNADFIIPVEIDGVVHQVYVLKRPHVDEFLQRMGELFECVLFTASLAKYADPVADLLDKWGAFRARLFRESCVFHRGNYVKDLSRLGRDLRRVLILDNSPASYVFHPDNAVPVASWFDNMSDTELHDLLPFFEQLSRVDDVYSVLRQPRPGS

cells [4] = format: functional, cell-based
cells [5] = format: functional, cell-based; remark: listed apart in the source
Genome polyprotein = Genome polyprotein (dengue virus type 2, UniProt P29990); experiment: Dengue-2 NS5 methyltransferase inhibitors, primary screen, biochemical, confirmation dose response (AID 588689); format: functional
Large T antigen = Large T antigen (Simian virus 40, UniProt P03070); format: functional, Betapolyomavirus macacae;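 further: Confirmatory-stage PubChem screen for compounds that inhibit SV40 T antigen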
[6] = target: FAD-linked sulfhydryl oxidase ALR (Homo sapiens, UniProt P55789); experiment: inhibitors of human ALR sulfhydryl oxidase, dose response, biochemical, H2O2 detection, luminescence, cherry-pick (AID 493248)
Cytochrome P450 2C9 = Cytochrome P450 2C9 (Homo sapiens, UniProt P11712)
Cytochrome P450 2C9, sequence (P11712 whole entry): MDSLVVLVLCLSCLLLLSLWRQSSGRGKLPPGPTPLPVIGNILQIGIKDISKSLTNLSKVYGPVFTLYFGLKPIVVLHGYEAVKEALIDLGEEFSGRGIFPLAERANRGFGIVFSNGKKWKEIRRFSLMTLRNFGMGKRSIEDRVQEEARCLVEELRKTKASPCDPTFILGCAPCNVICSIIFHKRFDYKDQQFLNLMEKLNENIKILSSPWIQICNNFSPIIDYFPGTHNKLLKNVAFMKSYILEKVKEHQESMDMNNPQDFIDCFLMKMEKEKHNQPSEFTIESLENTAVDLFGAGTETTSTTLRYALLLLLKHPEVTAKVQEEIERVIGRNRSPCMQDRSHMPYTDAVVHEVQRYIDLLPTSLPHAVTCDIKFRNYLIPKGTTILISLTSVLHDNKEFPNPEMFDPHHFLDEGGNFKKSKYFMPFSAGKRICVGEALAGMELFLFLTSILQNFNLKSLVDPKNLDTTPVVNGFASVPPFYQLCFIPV

Cytochrome P450 2C19 = Cytochrome P450 2C19 (Homo sapiens, UniProt P33261); experiment: Cytochrome panel assay with activity outcomes. Panel member name: p450-cyp2c19 Compounds with AC50 equal or less than 10 uM are considered active; format: functional; conditions: read-out: AC50
Cytochrome P450 2C19, sequence (P33261 whole entry): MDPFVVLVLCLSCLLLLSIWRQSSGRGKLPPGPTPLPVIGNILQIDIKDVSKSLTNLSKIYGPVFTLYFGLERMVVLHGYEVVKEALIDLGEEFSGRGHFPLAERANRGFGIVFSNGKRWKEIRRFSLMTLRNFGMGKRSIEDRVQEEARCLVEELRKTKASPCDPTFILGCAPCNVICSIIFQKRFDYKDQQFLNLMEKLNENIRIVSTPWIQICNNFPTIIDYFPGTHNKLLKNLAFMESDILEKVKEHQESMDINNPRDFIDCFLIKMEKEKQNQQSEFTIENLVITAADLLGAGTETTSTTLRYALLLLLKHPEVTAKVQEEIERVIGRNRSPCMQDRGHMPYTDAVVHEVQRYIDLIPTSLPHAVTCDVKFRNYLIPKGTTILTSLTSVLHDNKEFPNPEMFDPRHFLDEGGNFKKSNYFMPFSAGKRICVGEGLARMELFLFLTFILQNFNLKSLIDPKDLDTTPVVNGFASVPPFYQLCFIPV

[7] = Luminescence Cell-Based Dose Confirmation HTS to Identify Inhibitors of Platelet Dense Granule Release. [Related pubchem assays: 1663 (Primary HTS), 1678 (Summary of Project)]; format: functional
[8] = target: Luciferin 4-monooxygenase (Photinus pyralis, UniProt P08659); experiment: firefly luciferase enzyme inhibitors, dose response, biochemical, luminescence (AID 1891)
Luciferin 4-monooxygenase, sequence (P08659 whole entry): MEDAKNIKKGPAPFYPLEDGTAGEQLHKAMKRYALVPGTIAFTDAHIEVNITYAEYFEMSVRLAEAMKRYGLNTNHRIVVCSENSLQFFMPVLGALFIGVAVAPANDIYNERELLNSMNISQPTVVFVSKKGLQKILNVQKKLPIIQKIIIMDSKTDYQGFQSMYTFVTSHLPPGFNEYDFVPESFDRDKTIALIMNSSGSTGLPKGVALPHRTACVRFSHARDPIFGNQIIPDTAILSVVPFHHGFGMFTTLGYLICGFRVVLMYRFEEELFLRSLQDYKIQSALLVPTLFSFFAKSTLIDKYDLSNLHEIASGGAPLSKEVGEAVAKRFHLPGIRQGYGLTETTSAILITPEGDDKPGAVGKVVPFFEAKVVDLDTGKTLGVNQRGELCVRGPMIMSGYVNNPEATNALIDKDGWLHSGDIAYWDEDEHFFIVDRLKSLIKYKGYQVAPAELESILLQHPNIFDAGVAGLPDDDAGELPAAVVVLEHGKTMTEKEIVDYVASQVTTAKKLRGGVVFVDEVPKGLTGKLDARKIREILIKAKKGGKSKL

Cytochrome P450 2D6 = Cytochrome P450 2D6 (Homo sapiens, UniProt P10635);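 further: CYP2D6 member of a cytochrome P450 panel assay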
Cytochrome P450 2D6, sequence (P10635 whole entry): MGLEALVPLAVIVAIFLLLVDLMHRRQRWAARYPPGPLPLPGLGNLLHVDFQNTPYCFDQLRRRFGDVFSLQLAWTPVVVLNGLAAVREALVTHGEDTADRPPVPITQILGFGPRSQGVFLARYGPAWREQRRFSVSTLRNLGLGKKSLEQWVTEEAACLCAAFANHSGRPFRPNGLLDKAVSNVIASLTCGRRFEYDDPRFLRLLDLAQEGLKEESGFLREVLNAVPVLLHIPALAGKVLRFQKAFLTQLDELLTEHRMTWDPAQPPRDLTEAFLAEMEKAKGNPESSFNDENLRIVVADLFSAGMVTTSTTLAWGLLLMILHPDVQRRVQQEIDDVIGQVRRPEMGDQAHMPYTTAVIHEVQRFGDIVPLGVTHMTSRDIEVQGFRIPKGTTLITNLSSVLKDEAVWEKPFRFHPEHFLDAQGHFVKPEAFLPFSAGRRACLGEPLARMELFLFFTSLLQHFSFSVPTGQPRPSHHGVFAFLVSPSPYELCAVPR

Cytochrome P450 3A4 = Cytochrome P450 3A4 (Homo sapiens, UniProt P08684);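 further: CYP3A4 tested as one member of a cytochrome P450 panel screen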
Cytochrome P450 3A4, sequence (P08684 whole entry): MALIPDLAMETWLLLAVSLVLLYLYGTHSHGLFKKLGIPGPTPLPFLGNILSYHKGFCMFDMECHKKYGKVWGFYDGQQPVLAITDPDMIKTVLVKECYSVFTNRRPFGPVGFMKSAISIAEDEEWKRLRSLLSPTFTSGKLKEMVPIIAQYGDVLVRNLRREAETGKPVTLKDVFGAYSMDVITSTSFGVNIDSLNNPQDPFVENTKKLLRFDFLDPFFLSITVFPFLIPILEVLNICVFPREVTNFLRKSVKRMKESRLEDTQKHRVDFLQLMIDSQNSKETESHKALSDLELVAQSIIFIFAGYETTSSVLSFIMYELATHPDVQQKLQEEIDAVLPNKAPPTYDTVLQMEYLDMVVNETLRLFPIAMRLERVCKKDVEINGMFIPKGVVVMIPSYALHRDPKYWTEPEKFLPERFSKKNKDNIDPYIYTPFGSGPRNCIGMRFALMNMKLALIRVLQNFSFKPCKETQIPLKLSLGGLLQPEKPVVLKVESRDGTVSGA

Cytochrome P450 1A2 = target: T3, Cytochrome P450 1A2 (Homo sapiens, UniProt P05177);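 further: PubChem cytochrome P450 panel assay, CYP1A2 panel member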
T3 sequence (P05177 whole entry): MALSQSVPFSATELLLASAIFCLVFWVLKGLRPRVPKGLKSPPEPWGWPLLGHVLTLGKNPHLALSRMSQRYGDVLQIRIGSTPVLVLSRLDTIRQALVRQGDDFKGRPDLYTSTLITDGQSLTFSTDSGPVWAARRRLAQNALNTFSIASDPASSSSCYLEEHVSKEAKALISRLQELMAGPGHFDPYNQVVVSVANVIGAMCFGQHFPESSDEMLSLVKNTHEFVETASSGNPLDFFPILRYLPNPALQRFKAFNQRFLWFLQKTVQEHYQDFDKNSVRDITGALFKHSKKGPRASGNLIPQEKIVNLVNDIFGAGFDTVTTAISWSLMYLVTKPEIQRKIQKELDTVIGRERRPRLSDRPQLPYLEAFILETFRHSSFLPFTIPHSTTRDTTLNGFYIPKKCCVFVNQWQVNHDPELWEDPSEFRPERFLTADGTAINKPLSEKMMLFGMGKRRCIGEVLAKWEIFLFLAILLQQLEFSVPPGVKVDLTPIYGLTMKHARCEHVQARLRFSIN

[9] = NIH:OVCAR-3 ovarian cancer cell cytotoxicity, dose response, PAX8 inhibitor project, plate reader, dry powder samples (AID 743044); format: functional, cell-based
Paired box protein Pax-8 = Paired box protein Pax-8 (Homo sapiens, UniProt Q06710); experiment: inhibitors of PAX8-driven TPO luciferase reporter, dose response, RMG-I cells, cherry-pick (AID 687027); format: functional, cell-based;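 further: luciferase reporter driven by Pax8 target thyroperoxidase promoter measured by SteadyGlo luminescence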
[10] = inhibitors of clade B AD8 Env fusion, dose response, cell-based, cherry-pick (AID 652062); format: functional;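 further: luciferase signal from cell-cell fusion driven by HIV-1 clade B AD8 Env; potency is for inhibitors of fusion seen as a drop in luminescence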
[11] = inhibitors of HIV Env-driven cell fusion, dose response, cherry-pick (AID 652057); format: functional, cell-based
[12] = inhibitors of firefly luciferase expression or activity, dose response, H4 neuroglioma cells, luminescence (AID 1990); format: functional, cell-based
[13] = Luminescence Cell-Based Dose Response HTS to Identify Inhibitors of 5'UTR Stem-Loop Driven Prion Protein mRNA Translation in H4 Neuroglioblastoma Cells. [Related pubchem assays: 1827 (Project Summary), 1813 (Primary HTS)]; format: functional
[14] = inhibitors of SNCA 5'UTR-driven reporter translation, confirmation, H4 neuroglioma cells, luminescence (AID 1988); format: functional, cell-based
[15] = C. albicans growth with fluconazole, confirmation, fluorescence, retest (AID 2467); format: functional, cell-based
[16] = NIH-3T3 fibroblast cytotoxicity, dose response, cytotoxicity control, cell-based, fluorescence, Alamar Blue, secondary assay (AID 2327); format: functional;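 further: NIH-3T3 mouse fibroblasts cultured with fluconazole at 8 µg/mL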

T1 sequence (P49327 whole entry, the tested form may be a part): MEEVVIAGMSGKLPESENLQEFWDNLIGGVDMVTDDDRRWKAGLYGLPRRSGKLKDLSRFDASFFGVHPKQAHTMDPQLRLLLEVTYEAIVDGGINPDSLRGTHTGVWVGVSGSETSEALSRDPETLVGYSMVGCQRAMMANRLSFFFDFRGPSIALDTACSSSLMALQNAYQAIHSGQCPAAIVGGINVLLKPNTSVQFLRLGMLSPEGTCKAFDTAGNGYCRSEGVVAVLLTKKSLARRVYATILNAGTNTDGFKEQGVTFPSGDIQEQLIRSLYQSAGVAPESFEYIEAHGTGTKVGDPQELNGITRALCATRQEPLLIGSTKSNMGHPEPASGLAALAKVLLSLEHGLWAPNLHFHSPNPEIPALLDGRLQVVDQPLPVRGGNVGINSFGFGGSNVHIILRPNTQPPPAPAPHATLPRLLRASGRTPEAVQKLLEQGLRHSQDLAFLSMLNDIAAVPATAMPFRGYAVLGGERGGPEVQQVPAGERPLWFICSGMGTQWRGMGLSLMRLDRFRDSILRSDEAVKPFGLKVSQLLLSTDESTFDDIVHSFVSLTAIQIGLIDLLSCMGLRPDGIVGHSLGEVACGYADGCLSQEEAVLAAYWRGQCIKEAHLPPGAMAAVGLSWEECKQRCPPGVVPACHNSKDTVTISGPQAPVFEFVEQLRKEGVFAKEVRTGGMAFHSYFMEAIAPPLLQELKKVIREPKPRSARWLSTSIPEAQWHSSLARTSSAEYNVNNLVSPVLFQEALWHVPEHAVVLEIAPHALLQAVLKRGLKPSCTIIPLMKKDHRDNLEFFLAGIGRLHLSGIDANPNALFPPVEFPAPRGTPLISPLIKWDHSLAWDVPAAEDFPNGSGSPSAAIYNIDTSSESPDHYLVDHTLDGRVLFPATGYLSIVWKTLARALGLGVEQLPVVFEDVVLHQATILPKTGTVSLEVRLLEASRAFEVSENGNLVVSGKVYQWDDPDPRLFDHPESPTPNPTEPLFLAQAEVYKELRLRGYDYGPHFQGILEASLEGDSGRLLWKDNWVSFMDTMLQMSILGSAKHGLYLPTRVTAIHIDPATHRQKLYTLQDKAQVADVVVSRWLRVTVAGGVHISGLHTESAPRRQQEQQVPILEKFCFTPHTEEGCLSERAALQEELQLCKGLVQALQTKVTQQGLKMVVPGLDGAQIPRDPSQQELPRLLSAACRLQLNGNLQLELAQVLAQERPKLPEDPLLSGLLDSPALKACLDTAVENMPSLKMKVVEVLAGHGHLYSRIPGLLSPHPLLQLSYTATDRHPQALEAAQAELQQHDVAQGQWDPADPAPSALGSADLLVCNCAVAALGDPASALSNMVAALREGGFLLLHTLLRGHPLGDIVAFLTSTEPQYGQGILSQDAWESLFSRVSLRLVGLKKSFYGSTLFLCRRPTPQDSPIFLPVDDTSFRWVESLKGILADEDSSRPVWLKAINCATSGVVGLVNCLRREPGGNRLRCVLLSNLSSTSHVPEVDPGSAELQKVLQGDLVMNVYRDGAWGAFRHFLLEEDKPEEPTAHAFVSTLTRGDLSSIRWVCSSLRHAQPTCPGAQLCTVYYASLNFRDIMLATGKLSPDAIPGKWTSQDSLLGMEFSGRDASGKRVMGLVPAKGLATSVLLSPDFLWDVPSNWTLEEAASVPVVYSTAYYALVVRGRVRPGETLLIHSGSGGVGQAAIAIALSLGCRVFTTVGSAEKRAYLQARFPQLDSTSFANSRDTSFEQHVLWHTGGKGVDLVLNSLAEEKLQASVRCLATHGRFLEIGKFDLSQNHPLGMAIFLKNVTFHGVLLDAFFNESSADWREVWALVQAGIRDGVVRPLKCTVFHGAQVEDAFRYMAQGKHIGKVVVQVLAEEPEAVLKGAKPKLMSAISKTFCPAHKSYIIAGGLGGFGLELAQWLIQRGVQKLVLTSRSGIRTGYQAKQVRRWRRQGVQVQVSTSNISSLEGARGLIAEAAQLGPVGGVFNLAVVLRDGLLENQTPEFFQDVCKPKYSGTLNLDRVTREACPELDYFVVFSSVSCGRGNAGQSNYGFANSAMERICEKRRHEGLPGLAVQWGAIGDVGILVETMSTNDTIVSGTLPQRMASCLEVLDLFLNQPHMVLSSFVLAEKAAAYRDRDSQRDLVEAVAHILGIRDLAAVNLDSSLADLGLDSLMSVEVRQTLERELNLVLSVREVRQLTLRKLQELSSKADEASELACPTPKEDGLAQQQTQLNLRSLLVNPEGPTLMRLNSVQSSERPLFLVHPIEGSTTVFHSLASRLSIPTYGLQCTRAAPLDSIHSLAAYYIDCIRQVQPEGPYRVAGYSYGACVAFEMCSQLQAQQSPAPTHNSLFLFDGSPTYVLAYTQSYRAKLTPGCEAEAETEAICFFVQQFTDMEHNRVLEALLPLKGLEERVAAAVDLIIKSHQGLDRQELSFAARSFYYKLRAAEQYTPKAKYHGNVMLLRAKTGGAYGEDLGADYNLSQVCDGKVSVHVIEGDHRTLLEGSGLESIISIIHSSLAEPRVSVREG

Compound: CCOc1ccc(-c2ccc(NS(=O)(=O)c3cc([N+](=O)[O-])c(C)c([N+](=O)[O-])c3)cc2)nn1
- IC50 (Fatty acid synthase [1]): 0.872 µM (active)
- IC50 (Fatty acid synthase [2]): 0.706 µM (active)

Compound: O=C(COC(=O)c1ccc(S(=O)(=O)NCc2ccco2)cc1)Nc1ccc(Cl)cn1
- IC50 [3]: 4.79 µM (active)

Compound: NC(=NOC(=O)CC1CCCCC1)c1cccc([N+](=O)[O-])c1
- IC50 (Fatty acid synthase [1]): 7.05 µM (active)
- IC50 (Fatty acid synthase [2]): 8.29 µM (active)

Compound: Cc1cc(O)nc(SCC(=O)Nc2nonc2C)n1
- EC50 (cells [4]): > 350 µM (not active)
- EC50 (cells [5]): > 350 µM (not active)

Compound: COc1ccc2c(c1)c(=O)oc1c(C)c(OC(C)C(=O)N[C@@H](Cc3c[nH]c4ccc(O)cc34)C(=O)O)ccc12 (some centres not stated)
- IC50 [3]: 6.88 µM (active)

Compound: O=C1NN(c2ccccc2)C(=O)/C1=C/c1ccc(-c2cccc(C(=O)O)c2)o1
- IC50 (Genome polyprotein): 30.6 µM (active)
- IC50 (Large T antigen): 24.3 µM (active)
- AC50 [6]: 0.228 µM (active)
- IC50 [3]: 11 µM (active)

Compound: COc1cc(/C=C(/C#N)C(=O)Nc2ccccc2)ccc1OCc1ccc(C(=O)O)cc1
- IC50 [3]: 3.34 µM (active)

Compound: O=C(CNC(=O)c1ccc([N+](=O)[O-])cc1)c1ccccc1
- AC50 (Cytochrome P450 2C9): inconclusive
- AC50 (Cytochrome P450 2C19): 2.82 µM (inconclusive)

Compound: CCOc1ccccc1/C=C(\C#N)C(N)=O
- AC50 (Cytochrome P450 2C9): inconclusive

Compound: CN(C)S(=O)(=O)c1ccc(Cl)c(NC(=O)CSc2nc3ccccc3c(=O)n2CCCN2CCOCC2)c1
- EC50 [7]: 17.8 µM (active)
- EC50 [8]: > 112 µM (not active)

Compound: COCCNC(=O)CSc1nc(-c2ccc(OC)c(OC)c2)cc(C(F)(F)F)n1
- EC50 [7]: > 112 µM (not active)
- EC50 [8]: > 112 µM (not active)

Compound: COc1ccc(S(=O)(=O)NCCC(=O)NCc2ccc(F)cc2)cc1
- AC50 (Cytochrome P450 2C9): inconclusive
- AC50 (Cytochrome P450 2D6): 50.1 µM (inconclusive)
- AC50 (Cytochrome P450 3A4): 28.2 µM (inconclusive)

Compound: Cc1ccc(S(=O)(=O)Nc2cccc(-c3ccc(N4CCCCCC4)nn3)c2)cc1
- IC50 (Fatty acid synthase [1]): 6.68 µM (active)
- IC50 (Fatty acid synthase [2]): 3.42 µM (active)

Compound: COc1ccc(S(=O)(=O)N2CCN(CC(=O)Nc3cccc(F)c3)CC2)cc1
- AC50 (Cytochrome P450 2C9): inconclusive
- AC50 (Cytochrome P450 1A2): 0.0794 µM (inconclusive)
- AC50 (Cytochrome P450 2D6): 25.1 µM (inconclusive)

Compound: O=C(Cn1ncc(Cl)c(Cl)c1=O)NC1CCS(=O)(=O)C1 (configuration not stated)
- IC50 [3]: 8.49 µM (active)

Compound: CC1CCCC(C)N1C(=O)COC(=O)c1cc([N+](=O)[O-])ccc1N1CCOCC1 (configuration not stated)
- IC50 (Fatty acid synthase [1]): 7.31 µM (active)
- IC50 (Fatty acid synthase [2]): 9.93 µM (active)

Compound: Cc1cnc(C(=O)OCC(=O)Nc2ccc(Cl)cc2Cl)cn1
- EC50 [7]: 14.8 µM (active)
- EC50 [8]: > 112 µM (not active)

Compound: CC(/C=C/c1ccc(Cl)o1)=C\C(=O)O
- EC50 [7]: > 112 µM (not active)
- EC50 [8]: > 112 µM (not active)

Compound: O=C(NCC1CCCO1)c1cc(-c2ccc(F)cc2)no1 (configuration not stated)
- EC50 (cells [4]): 143 µM (active)
- EC50 (cells [5]): > 350 µM (not active)

Compound: CN(CC1CCCO1)S(=O)(=O)c1ccc(C(=O)Nc2nccs2)cc1 (configuration not stated)
- EC50 (cells [4]): > 350 µM (not active)
- EC50 (cells [5]): > 350 µM (not active)

Compound: O=C(c1cccnc1)c1cc2ccccc2[nH]1
- EC50 (cells [4]): > 350 µM (not active)
- EC50 (cells [5]): 31.3 µM (active)

Compound: O=C(CSc1ccc(-c2ccco2)nn1)c1ccccc1
- EC50 [7]: > 112 µM (not active)
- EC50 [8]: > 112 µM (not active)

Compound: COc1ccc(/C=C(\NC(=O)c2ccc([N+](=O)[O-])cc2)C(=O)NCCCn2ccnc2)cc1
- IC50 (Fatty acid synthase [1]): 2.35 µM (active)
- IC50 (Fatty acid synthase [2]): 3.01 µM (active)

Compound: COc1ccc(N/C=C\C(=O)c2ccc3c(c2)OCO3)cc1
- EC50 (cells [4]): > 350 µM (not active)
- EC50 (cells [5]): 4.39 µM (active)

Compound: CCCC(=O)Nc1cc(C(F)(F)F)ccc1N1CCOCC1
- EC50 [7]: > 112 µM (not active)
- EC50 [8]: > 112 µM (not active)

Compound: COc1ccc(CCNC(=O)CC(NC(=O)c2ccccc2Cl)c2ccccc2)cc1 (configuration not stated)
- EC50 (cells [4]): > 350 µM (not active)
- EC50 (cells [5]): > 350 µM (not active)

Compound: N=C1/C(=C\c2ccc(Br)o2)C(=O)N=C2SC(CC(=O)N3CCCCC3)=NN12
- IC50 (Large T antigen): > 100 µM (active)
- IC50 [3]: 26.7 µM (active)

Compound: CC(=O)Nc1cc(S(=O)(=O)Nc2ccccc2)c(C)cc1C
- AC50 (Cytochrome P450 2C9): inconclusive
- AC50 (Cytochrome P450 3A4): 28.2 µM (inconclusive)

Compound: O=C(C[C@@H]1C[C@H]2c3cc(NC(=O)Nc4ccc(C(F)(F)F)cc4)ccc3O[C@H]2[C@H](CO)O1)NCc1ccc(Cl)cc1
- AC50 [9]: 68.2 µM (active)
- AC50 (Paired box protein Pax-8): 17.5 µM (active)

Compound: C[C@H]1CN([C@@H](C)CO)S(=O)(=O)c2ccc(C#Cc3ccc(F)cc3)cc2O[C@H]1CN(C)C(=O)NC1CCCCC1
- AC50 [9]: 44.5 µM (active)
- AC50 (Paired box protein Pax-8): 8.09 µM (active)

Compound: CCNC(=O)C[C@@H]1CC[C@@H]2[C@@H](COc3ccc(NC(=O)Cc4cccs4)cc3C(=O)N2C)O1
- AC50 [10]: 41.5 µM (active)

Compound: O=C(C[C@H]1CC[C@@H](NC(=O)c2cccc(F)c2)[C@H](CO)O1)NCc1ccc(Oc2ccccc2)cc1
- AC50 [11]: 1.2 µM (active)
- AC50 [10]: 1.17 µM (active)

Compound: Cc1ccc(C(=O)N/N=C/c2cc(C)n(-c3ccc(Br)cc3)c2C)cc1[N+](=O)[O-]
- AC50 (Cytochrome P450 2C9): inconclusive
- EC50 [12]: 11.2 µM (active)
- EC50 [13]: 17.4 µM (active)
- EC50 [14]: 16.7 µM (active)

Compound: C[n+]1ccccc1C1CCCC/C1=N\NC(N)=S (configuration not stated)
- IC50 [3]: 5.71 µM (active)

Compound: CCOC(=O)/C(=N\Nc1cccc(C(F)(F)F)c1)N1CCOCC1
- EC50 (cells [4]): > 350 µM (not active)
- EC50 [15]: > 38 µM (not active)
- EC50 (cells [5]): 320 µM (active)
- EC50 [16]: > 160 µM (inconclusive)

Compound: CCC(=O)N(C)CCc1cc2c(c(OC)c1/C=N/NC(=O)c1ccccc1O)OCO2
- EC50 [7]: > 112 µM (not active)
- EC50 [8]: > 112 µM (not active)

Compound: CC(C)C(=O)c1c(C(C)C)nn2ccccc12 [IBUDILAST]
- AC50 (Cytochrome P450 2C9): inconclusive
- AC50 (Cytochrome P450 2C19): 3.16 µM (inconclusive)

Compound: Oc1c(Br)c(Br)c(Br)c(Br)c1Br [PENTABROMOPHENOL]
- IC50 (Fatty acid synthase [1]): 6.27 µM (active)
- IC50 (Fatty acid synthase [2]): 6.52 µM (active)
